Source: patent US11370880B1 (FLORIDA ATLANTIC UNIVERSITY BOARD OF TRUSTEES, priority 2018, dated 2022)

System: HUVEC cells
Method: Human umbilical vein endothelial cells (HUVECs) were grown in endothelial growth medium (EGM-2, Lonza) supplemented with 10% fetal bovine serum (Gibco) and 1% PSG (Penicillin-Streptomycin-Glutamine, Gibco). […] At the same time, the cellular toxicity of degradation product of PXDDA on HUVEC cells was also evaluated. For this purpose, 104 cells were first seeded and cultured on the 96-well plates for 3 days. The degradation products were diluted with culture medium to obtain different concentrations (12.5, 25, and 40% v/v), and they were then added into the cells. After 36 h, 20 μl of MTT solution was added and the plated was incubated at 37° C. for 4 h. After adding 200 μl of DMSO, the absorbance was recorded at 570 nm. The measurements were carried out in triplicate.

**Q.** With “poly(xylitol-dodecanedioic acid) [PXDDA]” as the substance, how does the “toxicity of degradation products to HUVEC cells (MTT)” value read?
**A.** No tangible toxicity
